Tests used:
Type in all cases: in vivo
Nightshade = assay: Test C preemergence
Sunflower = assay: Test C preemergence; conditions: Rate 500 g/ha, scale 0 to 100
[1] = tested on: Surinam grass (Brachiaria decumbens); assay: Test C preemergence
Outline: (§1)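 Herbicidal effect is a visual 0–100 score (100 = complete control) assigned versus untreated plants, 12 to 14 days after spraying in the greenhouse. Test compounds were applied in a non-phytotoxic, surfactant-containing solvent.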

[2] = tested on: bermudagrass (Cynodon dactylon); assay: Test C preemergence
Outline: as §1

[3] = tested on: cocklebur (Xanthium strumarium); assay: Test C preemergence
Outline: as §1

[4] = tested on: common ragweed (Ambrosia elatior); assay: Test C preemergence
Outline: as §1

corn (Zea mays) = assay: Test C preemergence
Outline: as §1

[5] = tested on: crabgrass (Digitaria sanguinalis); assay: Test C preemergence
Outline: as §1

[6] = tested on: giant foxtail (Setaria faberii); assay: Test C preemergence
Outline: as §1

[7] = tested on: goosegrass (Eleusine indica); assay: Test C preemergence
Outline: as §1

[8] = tested on: johnsongrass (Sorghum halepense); assay: Test C preemergence
Outline: as §1

kochia (Kochia scoparia) = assay: Test C preemergence
Outline: as §1

[9] = tested on: lambsquarters (Chenopodium album); assay: Test C preemergence
Outline: as §1

[10] = tested on: morningglory (Ipomoea hederacea); assay: Test C preemergence
Outline: as §1

[11] = tested on: pigweed (Amaranthus retroflexus); assay: Test C preemergence
Outline: as §1

soybean (Glycine max) = assay: Test C preemergence
Outline: as §1

[12] = tested on: velvetleaf (Abutilon theophrasti); assay: Test C preemergence
Outline: as §1

[13] = tested on: woolly cupgrass (Eriochloa villosa); assay: Test C preemergence
Outline: as §1

[14] = tested on: yellow nutsedge (Cyperus esculentus); assay: Test C preemergence
Outline: as §1

[15] = tested on: barnyardgrass (Echinochloa crus-galli); assay: Test C flooded paddy test; conditions: for Barnyardgrass plant response rating: Flooded Paddy, scale 0 to 100, 0 no effect, 100 complete control; for Plant response rating, Barnyardgrass: flooded paddy test, scale 0 to 100 (0 no effect, 100 complete control)
Outline: (§2)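 Rice and three paddy weeds were grown to the 2-leaf stage under flooded conditions, then treated and kept in a greenhouse for 12–14 days. Response was rated visually against untreated controls on a 0–100 scale, where 100 is complete control.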

[16] = tested on: duck salad (Heteranthera limosa); assay: Test C flooded paddy test; conditions: for Ducksalad plant response rating: Flooded Paddy, scale 0 to 100, 0 no effect, 100 complete control
Outline: as §2

[17] = tested on: smallflower flatsedge (Cyperus difformis); assay: Test C flooded paddy test; conditions: for Flatsedge plant response rating: Flooded Paddy, scale 0 to 100, 0 no effect, 100 complete control; for Plant response rating, Flatsedge: flooded paddy test, scale 0 to 100 (0 no effect, 100 complete control)
Outline: as §2

[18] = Rate 62 g/ha, scale 0 to 100, 0 no effect, 100 complete control
[19] = Preemergence, Rate 500 g/ha, scale 0 to 100
[20] = preemergence, Rate 250 g/ha, visual evaluation after 12 to 14 days
[21] = preemergence, Rate 125 g/ha, scale 0 to 100, 0 no effect, 100 complete control

SMILES: O=C1C(n2ccc(C3CCCCC3)n2)SCN1c1cccc(C(F)(F)F)c1 (stereo not shown) [Compound 52]
- Plant response rating, Nightshade (Nightshade; [18]): 30
- Plant response rating, Nightshade (Nightshade; Rate 125 g/ha, scale 0 to 100, 0 no effect, 100 complete control): 30
- Plant response rating, Nightshade (Nightshade; Rate 500 g/ha, scale 0 to 100): 50
- Plant response rating, Sunflower (Sunflower): 50
- Plant response rating, Surinam grass [1, 19]: 50
- Plant response rating, Surinam grass [1, 18]: 0
- Plant response rating (0 to 100), Surinam grass [1, 20]: 30
- Plant response rating, Surinam grass [1, 21]: 20
- Plant response rating, Bermudagrass [2, 19]: 100
- Plant response rating, Bermudagrass [2, 18]: 100
- Plant response rating (0 to 100 where 0 is no effect and 100 is complete control), Bermudagrass [2, 20]: 100
- Plant response rating, Bermudagrass [2, 21]: 100
- Plant response rating, Cocklebur [3, 19]: 30
- Plant response rating, Cocklebur [3, 18]: 0
- Plant response rating, Cocklebur [3, 21]: 0
- Plant response rating, Ragweed, Common [4, 19]: 50
- Plant response rating (0 to 100), Ragweed, Common [4, 20]: 40
- Plant response rating, Ragweed, Common [4, 21]: 0
- Plant response rating, Corn (corn (Zea mays); [19]): 40
- Plant response rating, Corn (corn (Zea mays); [18]): 0
- Plant response rating (0 to 100), Corn (corn (Zea mays); [20]): 20
- Plant response rating, Corn (corn (Zea mays); [21]): 0
- Plant response rating, Crabgrass [5, 19]: 100
- Plant response rating, Crabgrass [5, 18]: 90
- Plant response rating (0 to 100), Crabgrass [5, 20]: 100
- Plant response rating, Crabgrass [5, 21]: 100
- Plant response rating, Foxtail, Giant [6, 19]: 30
- Plant response rating, Foxtail, Giant [6, 18]: 60
- Plant response rating, Foxtail, Giant [6, 21]: 70
- Plant response rating, Goosegrass [7, 19]: 100
- Plant response rating, Goosegrass [7, 18]: 90
- Plant response rating (0 to 100), Goosegrass [7, 20]: 100
- Plant response rating, Goosegrass [7, 21]: 90
- Plant response rating, Johnsongrass [8, 19]: 100
- Plant response rating, Johnsongrass [8, 18]: 0
- Plant response rating (0 to 100), Johnsongrass [8, 20]: 90
- Plant response rating, Johnsongrass [8, 21]: 40
- Plant response rating, Kochia (kochia (Kochia scoparia); [19]): 60
- Plant response rating, Kochia (kochia (Kochia scoparia); [18]): 0
- Plant response rating (0 to 100), Kochia (kochia (Kochia scoparia); [20]): 30
- Plant response rating, Kochia (kochia (Kochia scoparia); [21]): 20
- Plant response rating, Lambsquarters [9, 19]: 100
- Plant response rating, Lambsquarters [9, 18]: 0
- Plant response rating (0 to 100), Lambsquarters [9, 20]: 100
- Plant response rating, Lambsquarters [9, 21]: 80
- Plant response rating, Morningglory [10, 19]: 30
- Plant response rating (0 to 100), Morningglory [10, 20]: 0
- Plant response rating, Morningglory [10, 21]: 0
- Plant response rating, Pigweed [11, 19]: 100
- Plant response rating (0 to 100), Pigweed [11, 20]: 30
- Plant response rating, Pigweed [11, 21]: 0
- Plant response rating, Soybean (soybean (Glycine max); [19]): 60
- Plant response rating (0 to 100), Soybean (soybean (Glycine max); [20]): 20
- Plant response rating, Soybean (soybean (Glycine max); [21]): 20
- Plant response rating, Velvetleaf [12, 19]: 0
- Plant response rating (0 to 100), Velvetleaf [12, 20]: 0
- Plant response rating, Velvetleaf [12, 21]: 0
- Plant response rating, Cupgrass, Woolly [13, 19]: 100
- Plant response rating, Cupgrass, Woolly [13, 18]: 30
- Plant response rating (0 to 100), Cupgrass, Woolly [13, 20]: 60
- Plant response rating, Cupgrass, Woolly [13, 21]: 50
- Plant response rating, Nutsedge [14, 19]: 40
- Plant response rating, Nutsedge [14, 18]: 0
- Plant response rating (0 to 100), Nutsedge [14, 20]: 20
- Plant response rating, Nutsedge [14, 21]: 0
- Barnyardgrass plant response rating ([15]; Rate 250 g/ha): 70
- Barnyardgrass plant response rating ([15]; Rate 500 g/ha): 100
- Plant response rating, Barnyardgrass ([15]; Rate 62 g/ha): 30
- Plant response rating, Barnyardgrass ([15]; Rate 125 g/ha): 60
- Ducksalad plant response rating ([16]; Rate 250 g/ha): 40
- Ducksalad plant response rating ([16]; Rate 500 g/ha): 100
- Plant response rating, Ducksalad ([16]; flooded paddy test, Rate 62 g/ha, scale 0 to 100 (0 no effect, 100 complete control)): 20
- Flatsedge plant response rating ([17]; Rate 250 g/ha): 100
- Flatsedge plant response rating ([17]; Rate 500 g/ha): 100
- Plant response rating, Flatsedge ([17]; Rate 62 g/ha): 90
- Plant response rating, Flatsedge ([17]; Rate 125 g/ha): 90
